From ChEMBL document CHEMBL5226364, “Microbial Dimerization and Chlorination of Isoflavones by a Takla Makan Desert-Derived Streptomyces sp. HDN154127” (2023)
Converted amounts (≈) assume the structure as drawn. “And” between values parts separate entries of the source, which are not always exact repeats. Equal values may be shown once.

Tests used:
Type in all cases: functional
Vibrio parahaemolyticus = assay: Antibacterial activity against Vibrio parahaemolyticus assessed as inhibition of bacterial growth incubated for 24 hrs by microbroth dilution method
Candida albicans = assay: Antifungal activity against monilia albicans assessed as inhibition of fungal growth incubated for 24 hrs by microbroth dilution method
Bacillus subtilis = assay: Antibacterial activity against Bacillus subtilis assessed as inhibition of bacterial growth incubated for 24 hrs by microbroth dilution method
Mycolicibacterium phlei = assay: Antibacterial activity against Mycobacterium phlei assessed as inhibition of bacterial growth incubated for 24 hrs by microbroth dilution method
Bacillus cereus = assay: Antibacterial activity against Bacillus cereus assessed as inhibition of bacterial growth incubated for 24 hrs by microbroth dilution method
Staphylococcus aureus = assay: Antibacterial activity against methicillin-resistant Staphylococcus aureus assessed as inhibition of bacterial growth incubated for 24 hrs by microbroth dilution method
Proteus sp. = assay: Antibacterial activity against Proteus sp. assessed as inhibition of bacterial growth incubated for 24 hrs by microbroth dilution method
[1] = Bacillus subtilis, read-out: MIC
[2] = Mycolicibacterium phlei, read-out: MIC
[3] = Proteus sp. (in: enterobacteria), read-out: MIC

Q: Which MIC (Vibrio parahaemolyticus) does the source give for `O=c1c(-c2ccc(O)c(Oc3ccc(-c4coc5c(Cl)c(O)ccc5c4=O)cc3)c2)coc2cc(O)ccc12` here?
A: 0.8 µM (≈ 0.433 µg/mL)

Q: What about the MIC (Candida albicans) of the same compound?
A: 1.6 µM (≈ 0.865 µg/mL)

Q: And the MIC (Bacillus subtilis; [1])?
A: 0.8 µM (≈ 0.433 µg/mL)

Q: And the MIC (Mycolicibacterium phlei; [2])?
A: > 50 µM

Q: And the MIC (Bacillus cereus; Bacillus cereus, read-out: MIC)?
A: > 50 µM

Q: What about the MIC (Staphylococcus aureus) of the same compound?
A: > 50 µM

Q: What about the MIC (Proteus sp.; [3]) of the same compound?
A: > 50 µM

Q: For `COc1cc(-c2coc3cc(O)c(-c4cc(-c5coc6cc(O)ccc6c5=O)ccc4O)cc3c2=O)ccc1O`, which MIC (Vibrio parahaemolyticus) is on record?
A: 50 µM (≈ 26.8 µg/mL)

Q: What about the MIC (Candida albicans) of the same compound?
A: > 50 µM

Q: And the MIC (Bacillus subtilis; [1])?
A: 12 µM (≈ 6.44 µg/mL)

Q: And the MIC (Mycolicibacterium phlei; [2])?
A: 12 µM (≈ 6.44 µg/mL)

Q: And the MIC (Bacillus cereus; Bacillus cereus, read-out: MIC)?
A: 12 µM (≈ 6.44 µg/mL)

Q: And the MIC (Staphylococcus aureus)?
A: > 50 µM

Q: What about the MIC (Proteus sp.; [3]) of the same compound?
A: 12 µM (≈ 6.44 µg/mL)

Q: Which results are given for `O=c1c(-c2ccc(O)c(Oc3ccc(-c4coc5c(Cl)c(O)cc(O)c5c4=O)cc3)c2)coc2cc(O)ccc12`?
A: MIC (Vibrio parahaemolyticus): 3.1 µM (≈ 1.73 µg/mL); MIC (Candida albicans): 1.6 µM (≈ 0.891 µg/mL); MIC (Bacillus subtilis; [1]): 1.6 µM (≈ 0.891 µg/mL); MIC (Mycolicibacterium phlei; [2]): > 50 µM; MIC (Bacillus cereus; Bacillus cereus, read-out: MIC): > 50 µM; MIC (Staphylococcus aureus): > 50 µM; MIC (Proteus sp.; [3]): > 50 µM

Q: Which MIC (Vibrio parahaemolyticus) does the source give for `COc1c(O)ccc2c(=O)c(-c3ccc(O)c(-c4cc(-c5coc6cc(O)ccc6c5=O)ccc4O)c3)coc12` here?
A: > 50 µM

Q: What about the MIC (Candida albicans) of the same compound?
A: > 50 µM

Q: What about the MIC (Bacillus subtilis; [1]) of the same compound?
A: 25 µM (≈ 13.4 µg/mL)

Q: And the MIC (Mycolicibacterium phlei; [2])?
A: 25 µM (≈ 13.4 µg/mL)

Q: And the MIC (Bacillus cereus; Bacillus cereus, read-out: MIC)?
A: 25 µM (≈ 13.4 µg/mL)

Q: What about the MIC (Staphylococcus aureus) of the same compound?
A: > 50 µM

Q: And the MIC (Proteus sp.; [3])?
A: > 50 µM

Q: Which MIC (Vibrio parahaemolyticus) does the source give for `O=C(O)c1cn(C2CC2)c2cc(N3CCNCC3)c(F)cc2c1=O` [CIPROFLOXACIN] here?
A: < 0.4 µM

Q: And the MIC (Bacillus subtilis; [1])?
A: < 0.4 µM

Q: And the MIC (Mycolicibacterium phlei; [2])?
A: < 0.4 µM

Q: What about the MIC (Bacillus cereus; Bacillus cereus, read-out: MIC) of the same compound?
A: < 0.4 µM

Q: And the MIC (Staphylococcus aureus)?
A: > 50 µM

Q: And the MIC (Proteus sp.; [3])?
A: 0.8 µM (≈ 0.265 µg/mL)

Q: With `O=c1c(-c2ccc(O)c(-c3c(O)cc(O)c4c(=O)c(-c5ccc(O)cc5)coc34)c2)coc2cc(O)cc(O)c12` as the compound, how does the MIC (Vibrio parahaemolyticus) read?
A: 0.8 µM (≈ 0.431 µg/mL)

Q: What about the MIC (Candida albicans) of the same compound?
A: > 50 µM

Q: What about the MIC (Bacillus subtilis; [1]) of the same compound?
A: 0.8 µM (≈ 0.431 µg/mL)

Q: And the MIC (Mycolicibacterium phlei; [2])?
A: 0.8 µM (≈ 0.431 µg/mL)

Q: And the MIC (Bacillus cereus; Bacillus cereus, read-out: MIC)?
A: 3.1 µM (≈ 1.67 µg/mL)

Q: What about the MIC (Staphylococcus aureus) of the same compound?
A: 0.8 µM (≈ 0.431 µg/mL)

Q: And the MIC (Proteus sp.; [3])?
A: 0.8 µM (≈ 0.431 µg/mL)

Q: With `O=c1c(-c2ccc(O)cc2)coc2cc(O)cc(O)c12` [GENISTEIN] as the compound, how does the MIC (Vibrio parahaemolyticus) read?
A: > 50 µM

Q: What about the MIC (Candida albicans) of the same compound?
A: > 50 µM

Q: And the MIC (Bacillus subtilis; [1])?
A: > 50 µM

Q: What about the MIC (Mycolicibacterium phlei; [2]) of the same compound?
A: > 50 µM

Q: What about the MIC (Bacillus cereus; Bacillus cereus, read-out: MIC) of the same compound?
A: > 50 µM

Q: What about the MIC (Staphylococcus aureus) of the same compound?
A: > 50 µM

Q: What about the MIC (Proteus sp.; [3]) of the same compound?
A: > 50 µM

Q: Which results are given for `O=c1c(-c2ccc(Oc3c(O)cc(O)c4c(=O)c(-c5ccc(O)cc5)coc34)cc2)coc2c(Cl)c(O)ccc12`?
A: MIC (Vibrio parahaemolyticus): > 50 µM; MIC (Candida albicans): > 50 µM; MIC (Bacillus subtilis; [1]): 0.4 µM (≈ 0.223 µg/mL); MIC (Mycolicibacterium phlei; [2]): > 50 µM; MIC (Bacillus cereus; Bacillus cereus, read-out: MIC): > 50 µM; MIC (Staphylococcus aureus): > 50 µM; MIC (Proteus sp.; [3]): > 50 µM

Q: With NYSTATIN as the compound, how does the MIC (Candida albicans) read?
A: 25 µM

Q: Which results are given for `O=c1c(-c2ccc(O)c(-c3c(O)ccc4c(=O)c(-c5ccc(O)cc5)coc34)c2)coc2cc(O)ccc12`?
A: MIC (Vibrio parahaemolyticus): 12 µM (≈ 6.08 µg/mL); MIC (Candida albicans): > 50 µM; MIC (Bacillus subtilis; [1]): 6.2 µM (≈ 3.14 µg/mL); MIC (Mycolicibacterium phlei; [2]): 6.2 µM (≈ 3.14 µg/mL); MIC (Bacillus cereus; Bacillus cereus, read-out: MIC): 3.1 µM (≈ 1.57 µg/mL); MIC (Staphylococcus aureus): > 50 µM; MIC (Proteus sp.; [3]): 50 µM (≈ 25.3 µg/mL)

Q: For `O=c1c(-c2ccc(O)cc2)coc2cc(O)ccc12` [DAIDZEIN], which MIC (Vibrio parahaemolyticus) is on record?
A: > 50 µM

Q: And the MIC (Candida albicans)?
A: > 50 µM

Q: What about the MIC (Bacillus subtilis; [1]) of the same compound?
A: > 50 µM

Q: And the MIC (Mycolicibacterium phlei; [2])?
A: > 50 µM

Q: And the MIC (Bacillus cereus; Bacillus cereus, read-out: MIC)?
A: > 50 µM

Q: What about the MIC (Staphylococcus aureus) of the same compound?
A: > 50 µM

Q: What about the MIC (Proteus sp.; [3]) of the same compound?
A: > 50 µM

Q: How did the MIC (Vibrio parahaemolyticus) turn out when `O=c1c(-c2ccc(Oc3c(O)cc(O)c4c(=O)c(-c5ccc(O)cc5)coc34)cc2)coc2c(Cl)c(O)cc(O)c12` was run?
A: 3.1 µM (≈ 1.78 µg/mL)

Q: And the MIC (Candida albicans)?
A: 1.6 µM (≈ 0.917 µg/mL)

Q: And the MIC (Bacillus subtilis; [1])?
A: 0.8 µM (≈ 0.458 µg/mL)

Q: What about the MIC (Mycolicibacterium phlei; [2]) of the same compound?
A: > 50 µM

Q: And the MIC (Bacillus cereus; Bacillus cereus, read-out: MIC)?
A: > 50 µM

Q: And the MIC (Staphylococcus aureus)?
A: > 50 µM

Q: What about the MIC (Proteus sp.; [3]) of the same compound?
A: > 50 µM

Q: How did the MIC (Candida albicans) turn out when `O=c1c(-c2ccc(O)c(-c3c(O)cc(O)c4c(=O)c(-c5ccc(O)cc5)coc34)c2)coc2cc(O)ccc12` was run?
A: > 50 µM

Q: What about the MIC (Bacillus subtilis) of the same compound?
A: 12 µM (≈ 6.27 µg/mL)

Q: And the MIC (Bacillus subtilis; [1])?
A: 6.2 µM (≈ 3.24 µg/mL)

Q: And the MIC (Staphylococcus aureus)?
A: > 50 µM

Q: What about the MIC (Proteus sp.; [3]) of the same compound?
A: 12 µM (≈ 6.27 µg/mL)

Q: How did the MIC (Vibrio parahaemolyticus) turn out when `O=c1c(-c2ccc(O)c(-c3cc(-c4coc5c(Cl)c(O)cc(O)c5c4=O)ccc3O)c2)coc2cc(O)cc(O)c12` was run?
A: 1.6 µM (≈ 0.917 µg/mL)

Q: And the MIC (Candida albicans)?
A: 1.6 µM (≈ 0.917 µg/mL)

Q: What about the MIC (Bacillus subtilis; [1]) of the same compound?
A: > 50 µM

Q: And the MIC (Mycolicibacterium phlei; [2])?
A: > 50 µM

Q: What about the MIC (Bacillus cereus; Bacillus cereus, read-out: MIC) of the same compound?
A: > 50 µM

Q: What about the MIC (Staphylococcus aureus) of the same compound?
A: > 50 µM

Q: And the MIC (Proteus sp.; [3])?
A: > 50 µM

Q: For `O=c1c(-c2ccc(O)cc2)coc2c(-c3cc(-c4coc5cc(O)cc(O)c5c4=O)ccc3O)c(O)ccc12`, which MIC (Vibrio parahaemolyticus) is on record?
A: 50 µM (≈ 26.1 µg/mL)

Q: And the MIC (Candida albicans)?
A: > 50 µM

Q: And the MIC (Bacillus subtilis)?
A: 25 µM and 12 µM

Q: What about the MIC (Mycolicibacterium phlei) of the same compound?
A: 12 µM and 25 µM

Q: What about the MIC (Bacillus cereus) of the same compound?
A: 12 µM (≈ 6.27 µg/mL)

Q: What about the MIC (Bacillus cereus; Bacillus cereus, read-out: MIC) of the same compound?
A: 6.2 µM (≈ 3.24 µg/mL)

Q: What about the MIC (Proteus sp.) of the same compound?
A: 25 µM (≈ 13.1 µg/mL)

Q: And the MIC (Proteus sp.; [3])?
A: 50 µM (≈ 26.1 µg/mL)
